These are literature values, as cited in patent US20220000160A1, “FLAVONOID DELIVERY SYSTEM” (priority 2019, published 2022).

`C[C@@H]1O[C@@H](OC[C@H]2O[C@@H](Oc3c(-c4ccc(O)c(O)c4)oc4cc(O)cc(O)c4c3=O)[C@H](O)[C@@H](O)[C@@H]2O)[C@H](O)[C@H](O)[C@H]1O` [Free rutin, quercetin-3-rhamnosylglucoside]: the solubility in ethanol result is “about 4 % w/v”.
